In US20230293539A1, “MLL1-WDR5 PROTEIN-PROTEIN INTERACTION INHIBITOR COMPOUNDS AND USES THEREOF” (HUYABIO International, LLC, priority 2022, published 2023):
Where two headings read alike, the source gives them in different places.

Tests used:
BRD2-BD1 = biological target: T1, BRD2-BD1 (Homo sapiens, UniProt P25440); experiment: Selectivity panel (Table 3); format: binding
T1 construct: BRD2-BD1

BRD3-BD1 = biological target: T2, BRD3-BD1 (Homo sapiens, UniProt Q15059); experiment: Selectivity panel (Table 3); format: binding
T2 construct: BRD3-BD1
T2 sequence (Q15059 34-140 limits assumed): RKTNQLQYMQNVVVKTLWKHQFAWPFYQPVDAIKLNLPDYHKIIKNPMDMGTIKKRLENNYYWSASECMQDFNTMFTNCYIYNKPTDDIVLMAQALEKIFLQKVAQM

HDAC1 = HDAC1 (Homo sapiens, UniProt Q13547); experiment: Selectivity panel (Table 3); format: biochemical
HDAC1, sequence (Q13547 whole entry, species assumed): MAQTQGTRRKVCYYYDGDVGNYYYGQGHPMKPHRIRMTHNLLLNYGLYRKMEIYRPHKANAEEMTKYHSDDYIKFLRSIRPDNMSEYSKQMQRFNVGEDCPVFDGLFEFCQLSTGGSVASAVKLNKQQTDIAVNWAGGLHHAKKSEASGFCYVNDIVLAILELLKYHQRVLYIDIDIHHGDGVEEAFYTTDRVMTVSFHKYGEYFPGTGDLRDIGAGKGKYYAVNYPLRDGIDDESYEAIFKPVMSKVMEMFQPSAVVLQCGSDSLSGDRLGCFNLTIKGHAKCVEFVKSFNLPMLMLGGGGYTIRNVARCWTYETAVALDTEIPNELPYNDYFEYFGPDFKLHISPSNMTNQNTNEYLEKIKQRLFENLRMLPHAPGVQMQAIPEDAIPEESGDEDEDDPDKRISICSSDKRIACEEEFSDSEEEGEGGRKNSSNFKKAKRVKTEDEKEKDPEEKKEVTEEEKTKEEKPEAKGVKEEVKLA

PD-1/PD-L1 = PD-1/PD-L1 (Homo sapiens, UniProt Q9NZQ7); experiment: Selectivity panel (Table 3); format: binding
PD-1/PD-L1, sequence (Q9NZQ7 19-238 limits assumed): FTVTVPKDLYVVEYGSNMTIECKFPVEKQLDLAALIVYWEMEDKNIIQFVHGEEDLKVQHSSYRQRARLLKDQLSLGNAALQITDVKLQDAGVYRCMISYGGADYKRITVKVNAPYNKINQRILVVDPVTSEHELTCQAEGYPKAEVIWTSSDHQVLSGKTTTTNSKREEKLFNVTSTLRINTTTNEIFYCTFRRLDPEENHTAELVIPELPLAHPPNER

PTP1B = PTP1B (Homo sapiens, UniProt P18031); experiment: Selectivity panel (Table 3); format: biochemical
PTP1B, sequence (P18031 whole entry, species assumed): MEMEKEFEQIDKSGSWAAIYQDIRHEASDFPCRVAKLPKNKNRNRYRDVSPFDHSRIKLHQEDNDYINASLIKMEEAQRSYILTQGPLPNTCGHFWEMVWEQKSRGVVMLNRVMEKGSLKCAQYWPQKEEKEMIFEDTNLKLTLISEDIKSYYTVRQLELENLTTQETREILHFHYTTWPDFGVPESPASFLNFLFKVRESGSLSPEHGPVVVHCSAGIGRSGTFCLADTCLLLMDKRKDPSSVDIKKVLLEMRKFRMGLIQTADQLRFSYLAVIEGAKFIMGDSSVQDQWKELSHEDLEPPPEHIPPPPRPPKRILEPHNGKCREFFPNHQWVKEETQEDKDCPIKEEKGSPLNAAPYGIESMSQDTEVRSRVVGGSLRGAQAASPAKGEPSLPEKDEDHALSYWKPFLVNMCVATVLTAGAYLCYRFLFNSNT

SHP2 E76K = SHP2 E76K (Homo sapiens, UniProt Q06124, E76K); experiment: Selectivity panel (Table 3); format: biochemical
SHP2 E76K, sequence (Q06124 whole entry E76K): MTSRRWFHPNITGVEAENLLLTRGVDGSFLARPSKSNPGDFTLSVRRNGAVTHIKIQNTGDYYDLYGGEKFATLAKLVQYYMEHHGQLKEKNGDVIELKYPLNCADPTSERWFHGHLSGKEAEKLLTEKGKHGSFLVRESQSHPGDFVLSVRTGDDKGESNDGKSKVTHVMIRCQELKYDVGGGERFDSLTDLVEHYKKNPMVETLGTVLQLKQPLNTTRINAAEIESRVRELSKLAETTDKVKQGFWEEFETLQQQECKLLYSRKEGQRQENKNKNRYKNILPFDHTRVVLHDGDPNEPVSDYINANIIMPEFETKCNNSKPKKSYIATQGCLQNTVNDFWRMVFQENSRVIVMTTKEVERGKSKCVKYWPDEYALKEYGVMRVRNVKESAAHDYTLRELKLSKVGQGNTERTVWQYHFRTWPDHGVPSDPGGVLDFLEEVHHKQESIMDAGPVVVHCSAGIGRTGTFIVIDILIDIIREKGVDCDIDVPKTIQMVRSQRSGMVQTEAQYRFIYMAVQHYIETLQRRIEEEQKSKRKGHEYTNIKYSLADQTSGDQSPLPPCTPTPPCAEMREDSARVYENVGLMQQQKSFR

TEAD4 = TEAD4 (Homo sapiens, UniProt Q15561); experiment: Selectivity panel (Table 3); format: binding
TEAD4, sequence (Q15561 whole entry, species assumed): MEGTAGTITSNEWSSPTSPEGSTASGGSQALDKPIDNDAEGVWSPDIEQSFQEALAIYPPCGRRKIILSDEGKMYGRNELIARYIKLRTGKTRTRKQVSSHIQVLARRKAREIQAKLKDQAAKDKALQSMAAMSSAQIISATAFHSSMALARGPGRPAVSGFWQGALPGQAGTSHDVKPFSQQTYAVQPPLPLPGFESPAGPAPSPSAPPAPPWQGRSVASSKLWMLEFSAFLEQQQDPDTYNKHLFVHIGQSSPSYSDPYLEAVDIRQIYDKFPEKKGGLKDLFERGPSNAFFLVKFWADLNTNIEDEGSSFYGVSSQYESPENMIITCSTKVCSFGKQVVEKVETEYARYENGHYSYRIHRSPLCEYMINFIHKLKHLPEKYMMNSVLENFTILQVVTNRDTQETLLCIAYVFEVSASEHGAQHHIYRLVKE

Mouse PK (oral) = format: in vivo, C57/B16 mice; conditions: for Cmax: plasma; for AUC(0-t) / half-life: C57/B16, plasma
Method: Mouse PK: Animals were dosed with a single intravenous bolus or oral gavage administration in naïve C57/B16 mice (Beijing Vital River Laboratory Animal Co., LTD). Blood samples were collected at the respective sampling time points. The quantification of compound concentrations in mouse or rat plasma was quantified using LC-MS/MS method. Plasma concentration versus time data was analyzed by non-compartmental mode approaches using the WinNonlin software program (version 6.3 or above, Pharsight). Pharmacokinetic parameters, including C0 (initial concentration after drug administration), […], Vdss (volume of distribution), Cmax (maximum peak concentration of the drug), Tmax (time required to reach Cmax) T1/2 (time required for drug concentration to decrease by 50% after administration), AUC0-last (area under the concentration-time curve from dosing time t=0 to the time of the last measured concentration), AUC0-inf (total drug exposure across time), MRT0-last (mean residence time from dosing time t=0 to the time of the last measured concentration), MRT0-inf f (mean residence time of total drug exposure), bioavailability (%) (the percentage (or the fraction F) of an administered drug dose that reaches the systemic circulation) for IV and PO groups were calculated. See Table 7 and FIGS. 6A, 6B, 6C and 6D.

Liver S9 stability assay [1] = format: in vitro ADME, human
Method: (§1) Liver S9 stability assay: Test compounds (1 μM) and positive control were incubated with 5 mM GSH and liver S9 (1 mg protein/ml) from multiple species (including human, monkey, dog, rat and mouse) at 37° C. at 0, 10, 30, and 60 minutes in duplicate. After adding the stop solution, 100 μL of supernatant were analyzed by LC-MS/MS. The % remaining of test compound, T1/2 (min), and CLint (μL/min/mg) were calculated and were reported.

Liver S9 stability assay [2] = format: in vitro ADME, dog
Method: as §1

[3] = Metabolite ID in Liver S9; format: in vitro ADME; conditions: HBI-2375 and metabolites in Dog liver S9
[4] = PK profile of HBI-2375 in plasma, brain and CSF in SD rats; format: in vivo; conditions: for AUC(0-t) / Cmax / MRT last / Tmax / Kp: rat; for Kp: po, 40 mg/kg, read-out: AUClast Ratio Tissue/Plasma
Method: EXAMPLE 3: PK profile of HBI-2375 (compound of Formula (IIIb) (HYBI-084) in plasma, brain, and cerebrospinal fluid (CSF) in SD rats: This study was conducted in accordance with the Study Protocol and Pharmaron (Ningbo) TSP's Standard Operating Procedures (SOPs) following all regulatory protocols. This study was conducted under non-GLP environment.
The maximal concentrations of HBI-2375 in CSF for males and females were at 1 hr post-dose. The maximal concentrations of HBI-2375 in brain were at 15 min post-dose for males and at 1 hr post-dose for females. The mean values of AUClast for HBI-2375 from high to low were: brain>plasma>CSF for males, and plasma>brain>CSF for females.
Following a single oral gavage administration of HBI-2375 at 40 mg/kg in SD rats, concentrations of HBI-2375 in plasma, brain, and CSF were determined by LC-MS/MS methods. […] The maximal concentrations of HBI-2375 in CSF for males and females were at 1 hr post-dose. The maximal concentrations of HBI-2375 in brain were at 15 min post-dose for males and at 1 hr post-dose for females.

[5] = Sprague-Dawley, SD rats, single PO 40 mg/kg, CSF, female
[6] = Sprague-Dawley, SD rats, single PO 40 mg/kg, CSF, male
[7] = Sprague-Dawley, SD rats, single PO 40 mg/kg, brain, female
[8] = Sprague-Dawley, SD rats, single PO 40 mg/kg, brain, male
[9] = Sprague-Dawley, SD rats, single PO 40 mg/kg, plasma, female
[10] = Sprague-Dawley, SD rats, single PO 40 mg/kg, plasma, male
[11] = both sexes, SD rats, single PO 40 mg/kg, brain, mean of male and female
[12] = both sexes, SD rats, single PO 40 mg/kg, plasma, mean of male and female

T1 sequence (P25440 74-180 limits assumed): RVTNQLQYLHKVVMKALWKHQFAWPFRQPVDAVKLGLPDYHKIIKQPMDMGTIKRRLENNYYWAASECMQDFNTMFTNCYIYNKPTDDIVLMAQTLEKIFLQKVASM

Cc1c(F)c(N)cc(C(=O)Nc2cc(-n3cc(C(=O)N4CCN(C)CC4)nn3)c(F)cc2N2C[C@@H](C)N(C)[C@@H](C)C2)c1Cl [HYBI-084, 5-amino-2-chloro-4-fluoro-N-(4-fluoro-5-(4-(4-methylpiperazine-1-carbonyl)-1H-1,2,3-triazol-1-yl)-2-((3S,5R)-3,4,5-trimethylpiperazin-1-yl)phenyl)-3-methylbenzamide]
IC50 (BRD2-BD1): > 1000 nM | IC50 (BRD3-BD1): > 1000 nM | IC50 (HDAC1): > 1000 nM | IC50 (PD-1/PD-L1): > 1000 nM | IC50 (PTP1B): > 1000 nM | IC50 (SHP2 E76K): > 1000 nM | IC50 (TEAD4): > 1000 nM | F (Mouse PK (oral); 10 mpk): 26.3% | F (Mouse PK (oral); 30 mpk): 37.7% | Cmax (Mouse PK (oral); C57/B16, 10 mg/kg, 10 mpk): 359 nM | Cmax (Mouse PK (oral); C57/B16, 30 mg/kg, 30 mpk): 1280 nM | AUC(0-t) (Mouse PK (oral); 10 mg/kg, 10 mpk): 1.31 µM·h | half-life (Mouse PK (oral); 10 mg/kg, 10 mpk): 186 min | AUC(0-t) (Mouse PK (oral); 30 mg/kg, 30 mpk): 5.64 µM·h | half-life (Mouse PK (oral); 30 mg/kg, 30 mpk): 210 min | half-life at 1 μM (Liver S9 stability assay [1]; Human liver S9): > 145 min | microsomal CLint at 1 μM (Liver S9 stability assay [1]; Human liver S9): < 4.8 µL/min/mg | % Remaining after 60 min incubation (Liver S9 stability assay [1]; Human liver S9, 1 μM, 5 mM GSH, 37° C.): 85.1% | half-life at 1 μM (Liver S9 stability assay [2]; Dog liver S9): > 145 min | microsomal CLint at 1 μM (Liver S9 stability assay [2]; Dog liver S9): < 4.8 µL/min/mg | % Remaining after 60 min incubation (Liver S9 stability assay [2]; Dog liver S9, 1 μM, 5 mM GSH, 37° C.): 92.5% | Relative Abundance (UV Peak Area % Total) [3]: 70.71% | AUClast Ratio Female/Male ([4]; SD rats, 40 mg/kg PO, CSF): 6.66 | C24hr/Cmax Ratio (%) ([4]; SD rats, 40 mg/kg PO, CSF, female): 11.6% | AUClast Ratio Tissue/Plasma ([4]; SD rats, 40 mg/kg PO, CSF/plasma, male, listed as HBI-2375, 40 mg/kg): 0.0111 | AUClast Ratio Female/Male ([4]; SD rats, 40 mg/kg PO, brain): 1.54 | C24hr/Cmax Ratio (%) ([4]; SD rats, 40 mg/kg PO, brain, female): 3.24% | C24hr/Cmax Ratio (%) ([4]; SD rats, 40 mg/kg PO, brain, male): 4.18% | AUClast from high to low ([4]; SD rats, 40 mg/kg PO, females): plasma>brain>CSF | AUClast from high to low ([4]; SD rats, 40 mg/kg PO, males): brain>plasma>CSF | AUClast Ratio Female/Male ([4]; SD rats, 40 mg/kg PO, plasma): 2.18 | C24hr/Cmax Ratio (%) ([4]; SD rats, 40 mg/kg PO, plasma, female): 1.17% | C24hr/Cmax Ratio (%) ([4]; SD rats, 40 mg/kg PO, plasma, male): 0.697% | distribution ([4]; SD rats, single PO 40 mg/kg): distributed to CSF and brain | duration of exposure in CSF and brain ([4]; SD rats, single PO 40 mg/kg): 24 h | in-life observations ([4]; SD rats, single PO 40 mg/kg): no abnormalities were observed | AUClast ([4]; SD rats, single PO 40 mg/kg, brain, female): 3394 ng·h/g | AUClast ([4]; SD rats, single PO 40 mg/kg, brain, male): 2199 ng·h/g | time of maximal concentration ([4]; SD rats, single PO 40 mg/kg, brain, males): 15 min | AUClast ([4]; SD rats, single PO 40 mg/kg, brain, mean of male and female): 2796 ng·h/g | concentration at 24 h ([4]; SD, brain, Single PO Rat 40 mg/kg, read-out: Mean Brain Concentration, Cmin = 24 h): 22.1 ng/g | AUC(0-t) [4, 5]: 124 ng·h/mL | Cmax [4, 5]: 24 ng/mL | MRT last [4, 5]: 8.41 h | Tmax ([4]; Sprague-Dawley, SD rats, single PO 40 mg/kg, CSF, female, read-out: Tmax): 60 min | AUC(0-t) [4, 6]: 18.6 ng·h/mL | Cmax [4, 6]: 7.48 ng/mL | MRT last [4, 6]: 2 h | Tmax ([4]; Sprague-Dawley, SD rats, single PO 40 mg/kg, CSF, male, read-out: Tmax): 60 min | Cmax [4, 7]: 833 ng/g | MRT last [4, 7]: 5.81 h | Tmax ([4]; Sprague-Dawley, SD rats, single PO 40 mg/kg, brain, female, read-out: Tmax): 60 min | Cmax [4, 8]: 413 ng/g | MRT last [4, 8]: 7 h | AUC(0-t) [4, 9]: 3660 ng·h/mL | Cmax [4, 9]: 934 ng/mL | MRT last [4, 9]: 5.11 h | AUC(0-t) [4, 10]: 1680 ng·h/mL | Cmax [4, 10]: 544 ng/mL | MRT last [4, 10]: 4.5 h | Tmax ([4]; both sexes, Sprague-Dawley, SD rats, single PO 40 mg/kg, plasma, males and females, read-out: Tmax (time of maximal concentration) (converted)): 15 min | Cmax [4, 11]: 623 ng/g | MRT last [4, 11]: 6.4 h | AUC(0-t) [4, 12]: 2670 ng·h/mL | Cmax [4, 12]: 739 ng/mL | MRT last [4, 12]: 4.8 h | Kp ([4]; female, Sprague-Dawley, CSF/plasma, SD rats, 40 mg/kg PO, CSF/plasma, female): 0.0338 | Kp ([4]; female, Sprague-Dawley, brain/plasma, SD rats, 40 mg/kg PO, brain/plasma, female): 0.928 | AUC(0-t) ([4]; female, Sprague-Dawley, SD rats, single PO 40 mg/kg, brain, females): 3390 ng·h/mL | crossing of the blood-brain barrier ([4]; general statement): can cross the blood-brain barrier | Kp ([4]; male, Sprague-Dawley, CSF/plasma, SD rats, 40 mg/kg PO, CSF/plasma, male): 0.011 | Kp ([4]; male, Sprague-Dawley, brain/plasma, SD rats, 40 mg/kg PO, brain/plasma, male): 1.31 | AUC(0-t) ([4]; male, Sprague-Dawley, SD rats, single PO 40 mg/kg, brain, males): 2200 ng·h/mL | Tmax ([4]; SD rats, single PO 40 mg/kg, brain, male, read-out: Tmax): 15 min | Tmax ([4]; SD rats, single PO 40 mg/kg, plasma, female, read-out: Tmax): 15 min | Tmax ([4]; SD rats, single PO 40 mg/kg, plasma, male, read-out: Tmax): 15 min
